26 compounds from patent US20070219214A1, “Dual NK2/NK3-antagonists, pharmaceutical compositions comprising them, and processes for their preparation” (Solvay pharmaceuticals GmbH, priority 2006, published 2007) can be followed below.

Assay [1] has as its target T1, human NK2-receptor (Homo sapiens, UniProt P21452).
T1 sequence (P21452 1-398): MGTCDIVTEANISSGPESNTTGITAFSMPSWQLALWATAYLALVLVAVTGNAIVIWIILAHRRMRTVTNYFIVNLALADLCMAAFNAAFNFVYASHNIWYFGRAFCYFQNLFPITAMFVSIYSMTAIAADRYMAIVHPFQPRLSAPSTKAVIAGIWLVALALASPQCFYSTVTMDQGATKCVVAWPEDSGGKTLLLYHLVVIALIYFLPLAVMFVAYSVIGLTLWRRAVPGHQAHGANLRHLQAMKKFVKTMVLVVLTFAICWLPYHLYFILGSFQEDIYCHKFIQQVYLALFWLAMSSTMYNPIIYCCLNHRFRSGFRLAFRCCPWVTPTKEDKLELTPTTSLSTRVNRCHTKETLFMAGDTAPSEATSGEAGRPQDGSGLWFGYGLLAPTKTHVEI
Briefly: Functional cellular test, Ca2+ measurements using FLIPR for NK2 activity.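 Further: CHO cells stably expressing the human receptor, loaded with a calcium dye, antagonist inhibition of ligand-evoked intracellular calcium rise read as peak fluorescence change on FLIPR.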

Assay [2] deals with T1, human NK2-receptor. Briefly: Binding potency of the test substances to NK2-receptors in vitro ([3H]-SR 48968 displacement). To be noted: human NK2-receptor in CHO cell membranes, [3H]-SR 48968 (saredutant); average of at least three measurements; read-out: pKi, binding potency to NK2-receptors (converted). Set-up: expressed in transfected cells; host or cells: CHO cells (membrane preparation). The text has this: 2. Determination of the Binding Potency of the Test Substances to NK2-Receptors in Vitro
The affinity of test compounds for NK2-receptors can be determined by measuring the ability of the test compound to displace a radiolabeled ligand from its specific binding site.
(§1) The radiolabel used in this assay is [^3H]-SR 48968 (saredutant). Receptors were obtained from membrane preparations of CHO-cells (Chinese Hamster Ovary cells), in which the human NK2-receptor was stably expressed. Membranes were incubated with [^3H]-saredutant in the absence or presence of test compounds at different concentrations, diluted in a buffer system. Separation of bound radioactivity from free radioactivity was done by filtration through glass fiber filters (Packard GF/B) with several washings with ice-cold buffer solution. Bound radioactivity was measured with a liquid scintillation counter (total binding). Unspecific binding was determined by incubation with an excess (0.1 μmol/l) of unlabeled saredutant. Specific binding is obtained by subtracting the unspecific binding from the total binding.
Radioactivity of the specific binding was plotted against the concentration of the test compound and IC50 values, i.e. the concentration of test compound by which 50% of the radioligand is displaced, were calculated. The inhibition constant (Ki) was calculated according to the Cheng-Prusoff equation, and listed as its negative logarithmic value (pKi). The pKi value describes the potency of a test compound to bind to a receptor.
(§2) The average result of all measurements is listed above.

Assay [3] addresses T2, human NK3 receptor (Homo sapiens, UniProt P29371).
T2 sequence (P29371 1-465): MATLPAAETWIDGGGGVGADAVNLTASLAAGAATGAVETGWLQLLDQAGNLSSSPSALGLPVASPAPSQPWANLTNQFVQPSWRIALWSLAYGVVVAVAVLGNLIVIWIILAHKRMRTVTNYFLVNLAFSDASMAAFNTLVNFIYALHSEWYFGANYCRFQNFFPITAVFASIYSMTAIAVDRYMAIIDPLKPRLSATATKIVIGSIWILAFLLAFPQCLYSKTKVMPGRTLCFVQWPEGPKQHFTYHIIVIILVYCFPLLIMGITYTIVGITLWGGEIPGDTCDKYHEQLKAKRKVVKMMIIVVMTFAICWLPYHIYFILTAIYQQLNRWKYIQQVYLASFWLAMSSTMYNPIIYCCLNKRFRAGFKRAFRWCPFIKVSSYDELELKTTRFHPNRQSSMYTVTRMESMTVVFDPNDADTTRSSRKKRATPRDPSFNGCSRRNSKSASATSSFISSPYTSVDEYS
The assay can be described thus: Binding potency of the test substances to NK3-receptors in vitro ([3H]-SR 142801 displacement). Set-up: expressed in transfected cells; host or cells: CHO cells (membrane preparation). To be noted: human NK3-receptor in CHO cell membranes, [3H]-SR 142801 (osanetant); average of at least three measurements; read-out: pKi, binding potency to NK3-receptors (converted).
Excerpt: 3. Determination of the Binding Potency of the Test Substances to NK3-Receptors in Vitro
The affinity of test compounds for NK3-receptors can be determined by measuring the ability of the test compound to displace a radiolabeled ligand from its specific binding site.
as §1, with “142801 (osanetant).” for “48968 (saredutant).”, “NK3-receptor” for “NK2-receptor”, “[^3H]-osanetant” for “[^3H]-saredutant”, “(1” for “(0.1”, “osanetant.” for “saredutant.”
Radioactivity of the specific binding was plotted against the concentration of the test compound and IC50 values, i.e. the concentration of test compound by which 50% of the radioligand is displaced, were calculated. The inhibition constant (Ki) was calculated according to the Cheng-Prusoff equation, and listed as its negative logarithmic value (pKi) The pKi value describes the potency of a test compound to bind to a receptor.
as §2

The target in assay [4] is T2, human NK3 receptor. The assay can be described thus: Functional cellular test, Ca2+ measurements using aequorin for NK3 activity. To be noted: read-out: pA2 data for NK3 (converted). It counts as cell-based. Set-up: expressed in transfected cells; host or cells: cell line co-expressing mitochondrially targeted apoaequorin (CHO according to b76/b77).

Each structure is given as a SMILES string.

Regarding `CC(=O)Oc1ccc(C(=O)N(C)C[C@@H](CCN2CCC(C(=O)N(C)C)(N3CCCCC3)CC2)c2ccc(Cl)c(Cl)c2)cc1` [compound 5, 4-({[(2S)-2-(3,4-dichlorophenyl)-4-{4′-[(dimethylamino)-carbonyl]-1,4′-bipiperidin-1′-yl}butyl](methyl)amino}carbonyl)phenyl acetate], the Kb on human NK2-receptor [1] and on human NK3 receptor [4] was 3.16 nM in each case. Further, the Ki on human NK2-receptor [2] is 1 nM; on human NK3 receptor [3], 5.01 nM.

With `CN(C)C(=O)C1(N2CCCCC2)CCN(CCC(CN(C)C(=O)c2cc[n+]([O-])cc2)c2ccc(Cl)c(Cl)c2)CC1` (stereo not drawn) [compound 17], the Kb at human NK2-receptor [1] is 15.8 nM; at human NK3 receptor [4], 126 nM. Also, the Ki on human NK2-receptor [2] is 31.6 nM.

`CC(=O)N1CCC(C(=O)N(C)CC(CCN2CCC(C(=O)N(C)C)(N3CCCCC3)CC2)c2ccc(Cl)c(Cl)c2)CC1` (stereo not drawn) [compound 52] gave a Kb at human NK2-receptor [1] of 3.98 nM. For the same compound, the Ki is 15.8 nM on human NK2-receptor [2] and 12.6 nM on human NK3 receptor [3].

With `CN(C)C(=O)C1(N2CCCCC2)CCN(CCC(CN(C)C(=O)C2CCOCC2)c2ccc(Cl)c(Cl)c2)CC1` (stereo not drawn) [compound 53], the Ki at human NK3 receptor [3] was 3.16 nM. Also, the Kb on human NK3 receptor [4] is 50.1 nM.

Turning to `CN(C)C(=O)C1(N2CCCCC2)CCN(CCC(CN(C)C(=O)c2ccc3c(c2)OC(F)(F)O3)c2ccc(Cl)c(Cl)c2)CC1` (stereo not drawn) [compound 63], the Ki on human NK2-receptor [2] was 3.98 nM; at human NK3 receptor [3], 20 nM.

Turning to `CN(C)C(=O)C1(N2CCCCC2)CCN(CCC(CN(C)C(=O)c2cc[nH]c2)c2ccc(Cl)c(Cl)c2)CC1` (stereo not drawn) [compound 64], the Ki was 12.6 nM on human NK2-receptor [2] and 79.4 nM on human NK3 receptor [3].

Regarding `CN(C)C(=O)C1(N2CCCCC2)CCN(CCC(CN(C)C(=O)c2ccc3occc3c2)c2ccc(Cl)c(Cl)c2)CC1` (stereo not drawn) [compound 68], the Kb on human NK2-receptor [1] is 10 nM. Further, the Ki on human NK2-receptor [2] was 2 nM; at human NK3 receptor [3], 10 nM.

Take `CN(C)C(=O)C1(N2CCCCC2)CCN(CCC(CN(C)C(=O)c2ccccc2Br)c2ccc(Cl)c(Cl)c2)CC1` (stereo not drawn) [compound 71]: the results for the Ki at human NK2-receptor [2] and at human NK3 receptor [3] were 5.01 nM and 39.8 nM, respectively.

Take `CN(C)C(=O)C1(N2CCCCC2)CCN(CCC(CN(C)C(=O)c2ccccc2F)c2ccc(Cl)c(Cl)c2)CC1` (stereo not drawn) [compound 72]: the Ki was 3.16 nM on human NK2-receptor [2] and 39.8 nM at human NK3 receptor [3].

For `CN(C)C(=O)C1(N2CCCCC2)CCN(CCC(CN(C)C(=O)c2c(F)c(F)c(F)c(F)c2F)c2ccc(Cl)c(Cl)c2)CC1` (stereo not drawn) [compound 73], the Ki is 12.6 nM on human NK2-receptor [2] and 39.8 nM on human NK3 receptor [3].

Take `CN(C)C(=O)C1(N2CCCCC2)CCN(CCC(CN(C)C(=O)c2c(F)cccc2F)c2ccc(Cl)c(Cl)c2)CC1` (stereo not drawn) [compound 74]: the values for the Ki at human NK2-receptor [2] and on human NK3 receptor [3] were 3.98 nM and 25.1 nM, respectively.

In the case of `CN(C)C(=O)C1(N2CCCCC2)CCN(CCC(CN(C)C(=O)c2ccc(Cl)cc2Cl)c2ccc(Cl)c(Cl)c2)CC1` (stereo not drawn) [compound 75], the Ki was 5.01 nM on human NK2-receptor [2] and 39.8 nM on human NK3 receptor [3].

Take `CN(C)C(=O)C1(N2CCCCC2)CCN(CCC(CN(C)C(=O)c2c(Cl)cccc2Cl)c2ccc(Cl)c(Cl)c2)CC1` (stereo not drawn) [compound 76]: the Ki at human NK2-receptor [2] was 15.8 nM; on human NK3 receptor [3], 50.1 nM.

`CN(C)C(=O)C1(N2CCCCC2)CCN(CCC(CN(C)C(=O)c2ccccc2C(F)(F)F)c2ccc(Cl)c(Cl)c2)CC1` (stereo not drawn) [compound 77]: the Ki on human NK2-receptor [2] was 3.16 nM; on human NK3 receptor [3], 79.4 nM.

With `Cc1ccccc1C(=O)N(C)CC(CCN1CCC(C(=O)N(C)C)(N2CCCCC2)CC1)c1ccc(Cl)c(Cl)c1` (stereo not drawn) [compound 78], the Ki on human NK2-receptor [2] was 1.58 nM; at human NK3 receptor [3] it was 25.1 nM.

As to `CN(C)C(=O)C1(N2CCCCC2)CCN(CCC(CN(C)C(=O)c2cccc(F)c2)c2ccc(Cl)c(Cl)c2)CC1` (stereo not drawn) [compound 79], the Ki was 2 nM at human NK2-receptor [2] and 20 nM on human NK3 receptor [3].

Consider `CN(C)C(=O)C1(N2CCCCC2)CCN(CCC(CN(C)C(=O)c2ccc(Cl)c(Cl)c2)c2ccc(Cl)c(Cl)c2)CC1` (stereo not drawn) [compound 81], for which the Ki on human NK2-receptor [2] is 12.6 nM; at human NK3 receptor [3], 79.4 nM.

Regarding `CN(C)C(=O)C1(N2CCCCC2)CCN(CCC(CN(C)C(=O)c2ccc(Cl)cc2)c2ccc(Cl)c(Cl)c2)CC1` (stereo not drawn) [compound 84], the Ki is 12.6 nM at human NK2-receptor [2] and 39.8 nM on human NK3 receptor [3].

On to `COc1ccc(C(=O)N(C)CC(CCN2CCC(C(=O)N(C)C)(N3CCCCC3)CC2)c2ccc(Cl)c(Cl)c2)cc1` (stereo not drawn) [compound 85], for which the Ki is 12.6 nM on human NK2-receptor [2] and 50.1 nM at human NK3 receptor [3].

For the compound `CN(C)C(=O)C1(N2CCCCC2)CCN(CCC(CN(C)C(=O)c2ccc(C(F)(F)F)cc2)c2ccc(Cl)c(Cl)c2)CC1` (stereo not drawn) [compound 86], the Ki is 12.6 nM at human NK2-receptor [2] and 63.1 nM on human NK3 receptor [3].

Turning to `Cc1ccc(C(=O)N(C)CC(CCN2CCC(C(=O)N(C)C)(N3CCCCC3)CC2)c2ccc(Cl)c(Cl)c2)cc1` (stereo not drawn) [compound 87], the Ki at human NK2-receptor [2] was 7.94 nM; at human NK3 receptor [3] it was 39.8 nM.

Turning to `CN(C)C(=O)C1(N2CCCCC2)CCN(CCC(CN(C)C(=O)Cc2ccccc2)c2ccc(Cl)c(Cl)c2)CC1` (stereo not drawn) [compound 89], the Ki was 12.6 nM at human NK2-receptor [2] and 15.8 nM on human NK3 receptor [3].

On to `CN(C)C(=O)C1(N2CCCCC2)CCN(CCC(CN(C)C(=O)C2CC2c2ccccc2)c2ccc(Cl)c(Cl)c2)CC1` (stereo not drawn) [compound 90], for which the figures for the Ki at human NK2-receptor [2] and on human NK3 receptor [3] were 12.6 nM and 79.4 nM, respectively.

Take `CN(C)C(=O)C1(N2CCCCC2)CCN(CCC(CN(C)C(=O)c2ccc(C#N)cc2)c2ccc(Cl)c(Cl)c2)CC1` (stereo not drawn) [compound 91]: the Ki at human NK2-receptor [2] was 7.94 nM; at human NK3 receptor [3], 15.8 nM.

Compound `CN(C)C(=O)C1(N2CCCCC2)CCN(CC[C@H](CN(C)C(=O)c2ccccc2)c2ccccc2)CC1` [compound 94, 1′-[(3S)-4-[benzoyl(methyl)amino]-3-phenylbutyl]-N,N-dimethyl-1, 4′-bipiperidine-4′-carboxamide] showed a Kb at human NK2-receptor [1] of 1.58 nM. The Ki on human NK2-receptor [2] was 3.16 nM.

Consider `CN(C[C@@H](CCN1CCC(C(=O)N2CCCC2)(N2CCCCC2)CC1)c1ccc(Cl)c(Cl)c1)C(=O)c1ccccc1` [compound 124, N-{(2S)-2-(3,4-dichlorophenyl)-4-[4′-(pyrrolidin-1-ylcarbonyl)-1,4′-bipiperidin-1′-yl]butyl}-N-methylbenzamide], for which the Ki was 1 nM at human NK2-receptor [2] and 15.8 nM at human NK3 receptor [3].
